According to US11267843B2, “Stereodefining L-monomers” (Roche Innovation Center Copenhagen A/S, priority 2016, dated 2022):

Legend:
[1] = Stability determination of amidite in solvent after 24 hours (HPLC-MS, UV 254 nm); type: physicochemical; details: for Stability at 24 hours: room temperature, grades 1-3, key not given
Protocol: (§1) To a 1.5 mL vial was added 0.013 mmol of amidite after which the solid material was dissolved in 0.13 mL of solvent. Hereafter, the vial was capped, vortexed, and finally left at room temperature for 24 hours. Then, the dissolved material was visually examined regarding the solubility (FIG. 1). If the solution appeared cloudy or otherwise non-homogenous the solubility was set to “no”.
Stability Determination Method: To complete the analysis the stability of the amidite was investigated using an Agilent 1100 series HPLC-MS with from the following specifications:
Column: Waters XTerra, MS C-18, 5 μm, 2.1×100 mm
Eluent: A: 0.1% sat. NH4OH (aq) in H2O B: 20% A in CH3CN
The mass and UV peak of the mother compound was identified at 0 hours and at 24 hours. Hereafter, the relative stability compared to other by-products was reported by integrating the UV chromatogram (254 nm) and normalizing the area to the chromatogram recorded at 0 hours (FIG. 2).

[2] = Solubility of amidite in solvent, visual examination; type: physicochemical
Protocol: To investigate the stability and solubility of L-LNA G-DMF and L-LNA G-i-Bu the following experimental procedure was followed:
as §1

| SMILES | Stability at 24 hours ([1]; solvent DCE) | Stability at 24 hours ([1]; solvent DCM) | Stability at 24 hours ([1]; solvent DMF) | Stability at 24 hours ([1]; solvent DMSO) | Stability at 24 hours ([1]; solvent Dioxane) | Stability at 24 hours ([1]; solvent MeCN:Acetone (1:1)) | Stability at 24 hours ([1]; solvent MeCN:DCE (1:1)) | Stability at 24 hours ([1]; solvent MeCN:DCM (1:1)) | Stability at 24 hours ([1]; solvent MeCN:Toluene (1:1)) | Stability at 24 hours ([1]; solvent MeCN) | Stability at 24 hours ([1]; solvent NMP) | Stability at 24 hours ([1]; solvent THE) | Stability at 24 hours ([1]; solvent Toluene) | stability in most solvents (side by side comparison) ([1]; most solvents) | solubility in most solvents (side by side comparison) ([2]; most solvents) | improvement in stability ([1]; all solvents investigated) | solubility in all solvents investigated ([2]; all solvents investigated (12 different)) |
| --- | --- | --- | --- | --- | --- | --- | --- | --- | --- | --- | --- | --- | --- | --- | --- | --- | --- |
| COc1ccc(C(OCC23COC(C(n4cc(C)c(=O)[nH]c4=O)O2)C3OP2OC(c3ccccc3)C3CCCN32)(c2ccccc2)c2ccc(OC)cc2)cc1 [D-LNA T-DMF] | 1 | 1 | 2 | 3 | 2 | 2 | 1 | 1 | 3 | 1 | 3 | 1 | 3 | – | – | – | – |
| COc1ccc(C(OCC2OC(n3cnc4c(=O)[nH]c(N=CN(C)C)nc43)CC2OP2OC(c3ccccc3)C3CCCN32)(c2ccccc2)c2ccc(OC)cc2)cc1 [L-DNA G-DMF] | – | – | 3 | 3 | 2 | 3 | 3 | 3 | 3 | 2 | – | 3 | 3 | – | – | – | – |
| COc1ccc(C(OCC23COC(C(n4cnc5c(=O)[nH]c(N=CN(C)C)nc54)O2)C3OP2OC(c3ccccc3)C3CCCN32)(c2ccccc2)c2ccc(OC)cc2)cc1 [D-LNA G-DMF] | 1 | 1 | 1 | 1 | 1 | 2 | 1 | 1 | 3 | 1 | 3 | 2 | 3 | stable | soluble | – | – |
| COc1ccc(C(OCC2OC(n3cc(C)c(=O)[nH]c3=O)CC2OP2OC(c3ccccc3)C3CCCN32)(c2ccccc2)c2ccc(OC)cc2)cc1 [L-DNA T-DMF] | 1 | 1 | 3 | 3 | 1 | 3 | 3 | 3 | 3 | 3 | 3 | 2 | 3 | – | – | – | – |
| COc1ccc(C(OCC2OC(n3cnc4c(=O)[nH]c(N=CN(C)C)nc43)CC2OP2OC(c3ccccc3)C3CCCN32)(c2ccccc2)c2ccc(OC)cc2)cc1 [D-DNA G-DMF] | – | – | 3 | 3 | 2 | 3 | 3 | 3 | 3 | 3 | – | 3 | 3 | – | – | – | – |
| COc1ccc(C(OC[C@@]23CO[C@@H]([C@H](n4cnc5c(=O)[nH]c(NC(=O)C(C)C)nc54)O2)[C@@H]3O[P@]2O[C@H](c3ccccc3)[C@@H]3CCCN32)(c2ccccc2)c2ccc(OC)cc2)cc1 [L-LNA G-iBu, N-(9-((1R,3R,4R,7S)-1-((bis(4-methoxyphenyl)(phenyl)methoxy)methyl)-7-(((1R,3R,3aS)-3-phenyltetrahydro-1H,3H-pyrrolo[1,2-c][1,3,2]oxazaphosphol-1-yl)oxy)-2,5-dioxabicyclo[2.2.1]heptan-3-yl)-6-oxo-6,9-dihydro-1H-purin-2-yl)isobutyramide] | 2 | 2 | 3 | 3 | 1 | 2 | 2 | 2 | 3 | 2 | – | 2 | 3 | – | – | significant improvement | soluble |
| COc1ccc(C(OCC23COC(C(n4cc(C)c(=O)[nH]c4=O)O2)C3OP2OC(c3ccccc3)C3CCCN32)(c2ccccc2)c2ccc(OC)cc2)cc1 [L-LNA T-DMF] | 1 | 1 | 1 | 2 | 1 | 2 | 1 | 1 | 3 | 1 | 2 | 1 | 3 | – | – | – | – |
| COc1ccc(C(OCC2OC(n3cc(C)c(=O)[nH]c3=O)CC2OP2OC(c3ccccc3)C3CCCN32)(c2ccccc2)c2ccc(OC)cc2)cc1 [D-DNA T-DMF] | 1 | 1 | 3 | 3 | 1 | 2 | 3 | 3 | 3 | 3 | 3 | 1 | 3 | – | – | – | – |
